These results are taken from US20240182461A1, “SELECTIVE ANGIOTENSIN II RECEPTOR LIGANDS” (priority 2021, published 2024).

The target in data set [1] is T1, human recombinant AT2 receptor (Homo sapiens, UniProt P50052).
T1 construct: Eurofins (protocol only) ITEM26
T1 sequence (P50052 1-363): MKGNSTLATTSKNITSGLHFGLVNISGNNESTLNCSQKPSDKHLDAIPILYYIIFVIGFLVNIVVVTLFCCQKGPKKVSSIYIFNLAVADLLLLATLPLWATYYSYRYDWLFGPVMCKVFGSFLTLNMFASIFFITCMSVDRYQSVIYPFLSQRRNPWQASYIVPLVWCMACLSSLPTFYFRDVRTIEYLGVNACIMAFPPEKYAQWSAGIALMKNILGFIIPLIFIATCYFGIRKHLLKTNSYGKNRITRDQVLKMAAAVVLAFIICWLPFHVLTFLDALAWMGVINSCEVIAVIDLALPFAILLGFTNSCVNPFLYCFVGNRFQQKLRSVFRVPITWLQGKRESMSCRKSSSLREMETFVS
Put plainly: Radioligand binding to AT2 receptor (Eurofins radiometric scintillation assay). Conditions: ligand 125I CGP 42112A; for IC50: 1, 10, 100 and 1000 nM, read-out: AT2 GraFit IC50; for Ki: seven-point dose-response curve, read-out: AT2R Ki.

For data set [2], the target named is T2, human recombinant AT1 receptor (Homo sapiens, UniProt P30556).
T2 construct: Eurofins (protocol only) ITEM24
T2 sequence (P30556 1-359): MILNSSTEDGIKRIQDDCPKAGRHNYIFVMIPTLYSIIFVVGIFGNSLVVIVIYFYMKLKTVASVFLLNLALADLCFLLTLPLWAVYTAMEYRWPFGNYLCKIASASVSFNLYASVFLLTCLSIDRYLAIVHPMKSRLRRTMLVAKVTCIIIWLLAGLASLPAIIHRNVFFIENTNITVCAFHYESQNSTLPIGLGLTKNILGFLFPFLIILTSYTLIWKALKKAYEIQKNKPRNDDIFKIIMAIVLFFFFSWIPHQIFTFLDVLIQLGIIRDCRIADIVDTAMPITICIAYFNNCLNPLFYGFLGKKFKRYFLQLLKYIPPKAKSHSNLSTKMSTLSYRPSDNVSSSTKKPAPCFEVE
Put plainly: Radioligand binding to AT1 receptor (Eurofins radiometric scintillation assay). The conditions noted are these: 1 and 10 μM; ligand 125I(sar1,Ile8)-AT-II.

A short description of data set [3]: Metabolic stability in pooled human liver microsomes. Format: in vitro ADME. Conditions: human liver microsomes 0.5 mg/mL, 1 μM compound, 37° C.
For data set [4], the target named is T3, CYP2C9 (Homo sapiens, UniProt P11712). Nature of the data set: CYP inhibition in human liver microsomes, CYP2C9. The format is in vitro ADME. Details: incubated with human liver microsomes; from tissue; host or cells: human liver microsomes. Conditions: probe diclofenac, substrate diclofenac, read-out: CYP2C9 Inh %.
Data set [5] has as its target T4, CYP1A (Homo sapiens, UniProt P05177).
T4 construct: incubated with human liver microsomes; from tissue; host or cells: human liver microsomes
Put plainly: CYP inhibition in human liver microsomes, CYP1A. Format: in vitro ADME. Conditions: probe phenacetin, substrate phenacetin, read-out: CYP1A Inh %.

Data set [6] deals with T5, CYP2B6 (Homo sapiens, UniProt P20813).
T5 construct: incubated with human liver microsomes; from tissue; host or cells: human liver microsomes
T5 sequence (P20813 1-491): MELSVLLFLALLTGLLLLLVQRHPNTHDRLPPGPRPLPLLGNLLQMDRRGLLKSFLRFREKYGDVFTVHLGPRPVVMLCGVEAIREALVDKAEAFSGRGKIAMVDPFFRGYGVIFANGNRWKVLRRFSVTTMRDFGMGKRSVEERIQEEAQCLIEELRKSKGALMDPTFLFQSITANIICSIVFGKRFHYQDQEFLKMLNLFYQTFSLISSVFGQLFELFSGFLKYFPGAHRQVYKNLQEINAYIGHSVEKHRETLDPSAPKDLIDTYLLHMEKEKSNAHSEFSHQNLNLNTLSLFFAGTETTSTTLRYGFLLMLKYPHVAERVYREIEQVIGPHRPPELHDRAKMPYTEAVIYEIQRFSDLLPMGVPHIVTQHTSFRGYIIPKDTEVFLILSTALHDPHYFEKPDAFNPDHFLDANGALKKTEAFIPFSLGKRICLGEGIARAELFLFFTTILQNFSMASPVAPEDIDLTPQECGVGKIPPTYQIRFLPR
Put plainly: CYP inhibition in human liver microsomes, CYP2B6. Format: in vitro ADME. Conditions: probe bupropion, substrate bupropion, read-out: CYP2B6 Inh %.

Data set [7] addresses T6, CYP3A4 (Homo sapiens, UniProt P08684). Nature of the data set: CYP inhibition in human liver microsomes, CYP3A4 midazolam. Format: in vitro ADME. Details: incubated with human liver microsomes; from tissue; host or cells: human liver microsomes. The conditions noted are these: probe midazolam, substrate midazolam, read-out: CYP3A4 midazolam Inh %. For orientation: Liver microsomes are a subcellular fraction often used to study metabolism.

The target of data set [8] is T7, CYP2C19 (Homo sapiens, UniProt P33261).
T7 construct: incubated with human liver microsomes; from tissue; host or cells: human liver microsomes
Put plainly: CYP inhibition in human liver microsomes, CYP2C19. Format: in vitro ADME. Conditions: probe omeprazole, substrate omeprazole, read-out: CYP2C19 Inh %.

The target of data set [9] is T8, CYP2D6 (Homo sapiens, UniProt P10635).
T8 construct: incubated with human liver microsomes; from tissue; host or cells: human liver microsomes
Put plainly: CYP inhibition in human liver microsomes, CYP2D6. The format is in vitro ADME. Conditions: probe dextromethorphan, substrate dextromethorphan, read-out: CYP2D6 Inh %.

Data set [10] has as its system CYP3A4&5. Nature of the data set: CYP inhibition in human liver microsomes, CYP3A4&5 testosterone. The format is in vitro ADME. The conditions noted are these: probe testosterone, substrate testosterone, read-out: CYP3A4&5 testosterone Inh %.
Data set [11] deals with T9, CYP2C8 (Homo sapiens, UniProt P10632).
T9 construct: incubated with human liver microsomes; from tissue; host or cells: human liver microsomes
T9 sequence (P10632 1-490): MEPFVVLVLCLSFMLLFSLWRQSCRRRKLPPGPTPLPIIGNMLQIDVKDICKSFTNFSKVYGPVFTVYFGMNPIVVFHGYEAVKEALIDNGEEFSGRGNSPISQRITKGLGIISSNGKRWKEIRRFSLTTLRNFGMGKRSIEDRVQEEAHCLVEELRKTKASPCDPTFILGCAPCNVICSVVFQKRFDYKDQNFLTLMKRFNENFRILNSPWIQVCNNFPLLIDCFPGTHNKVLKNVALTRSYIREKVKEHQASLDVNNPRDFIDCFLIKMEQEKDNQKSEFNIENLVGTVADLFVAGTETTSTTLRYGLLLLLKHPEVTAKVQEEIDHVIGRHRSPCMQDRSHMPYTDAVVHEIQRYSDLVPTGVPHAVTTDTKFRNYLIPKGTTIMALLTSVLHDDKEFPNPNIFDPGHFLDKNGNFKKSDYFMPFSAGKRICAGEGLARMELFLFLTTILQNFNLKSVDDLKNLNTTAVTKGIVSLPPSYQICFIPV
Put plainly: CYP inhibition in human liver microsomes, CYP2C8. Format: in vitro ADME. The conditions noted are these: probe paclitaxel and amodiaquine, substrates paclitaxel and amodiaquine, read-out: CYP2C8 Inh %.

The target in data set [12] is T6, CYP3A4. Nature of the data set: CYP inhibition of C21 found during development. Format: in vitro ADME.
The target of data set [13] is T3, CYP2C9. Nature of the data set: CYP inhibition of C21 found during development. The format is in vitro ADME.
A short description of data set [14]: Metabolic hydrolysis of C21 found during development. The format is in vitro ADME.
The mark [15] stands for this setting: with 1 mM NADPH, read-out: T1/2, + NaDPH.
Where [16] appears, read: without NADPH, read-out: T1/2, no NaDPH.

Molecules are shown by their SMILES. Like-named read-outs stand apart in the source and are kept apart here.

T7 sequence (P33261 whole entry): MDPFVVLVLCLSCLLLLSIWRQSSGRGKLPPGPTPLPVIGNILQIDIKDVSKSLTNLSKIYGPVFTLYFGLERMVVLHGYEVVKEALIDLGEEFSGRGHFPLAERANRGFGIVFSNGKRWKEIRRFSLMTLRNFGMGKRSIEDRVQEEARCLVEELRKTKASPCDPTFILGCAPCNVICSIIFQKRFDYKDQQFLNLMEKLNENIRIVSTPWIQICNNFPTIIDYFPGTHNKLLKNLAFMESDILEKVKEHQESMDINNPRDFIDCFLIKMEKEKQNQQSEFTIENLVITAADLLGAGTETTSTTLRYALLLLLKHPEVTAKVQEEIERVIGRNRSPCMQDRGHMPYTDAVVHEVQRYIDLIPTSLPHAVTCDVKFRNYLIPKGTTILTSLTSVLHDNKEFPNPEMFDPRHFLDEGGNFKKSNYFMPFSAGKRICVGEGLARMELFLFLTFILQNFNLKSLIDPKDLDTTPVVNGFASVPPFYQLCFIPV
T8 sequence (P10635 whole entry): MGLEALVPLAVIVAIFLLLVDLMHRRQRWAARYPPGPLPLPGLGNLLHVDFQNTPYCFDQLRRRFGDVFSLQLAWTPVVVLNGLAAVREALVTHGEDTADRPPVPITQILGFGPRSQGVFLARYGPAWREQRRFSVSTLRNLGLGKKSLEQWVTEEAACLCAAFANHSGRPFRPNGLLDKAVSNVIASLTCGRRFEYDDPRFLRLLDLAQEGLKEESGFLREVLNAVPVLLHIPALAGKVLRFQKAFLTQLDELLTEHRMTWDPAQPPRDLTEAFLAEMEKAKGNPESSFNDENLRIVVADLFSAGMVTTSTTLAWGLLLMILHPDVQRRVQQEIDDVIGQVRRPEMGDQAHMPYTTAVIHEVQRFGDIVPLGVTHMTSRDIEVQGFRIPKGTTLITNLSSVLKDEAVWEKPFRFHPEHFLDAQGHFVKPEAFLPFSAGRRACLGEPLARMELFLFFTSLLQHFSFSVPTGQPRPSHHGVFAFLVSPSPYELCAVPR
T6 sequence (P08684 whole entry): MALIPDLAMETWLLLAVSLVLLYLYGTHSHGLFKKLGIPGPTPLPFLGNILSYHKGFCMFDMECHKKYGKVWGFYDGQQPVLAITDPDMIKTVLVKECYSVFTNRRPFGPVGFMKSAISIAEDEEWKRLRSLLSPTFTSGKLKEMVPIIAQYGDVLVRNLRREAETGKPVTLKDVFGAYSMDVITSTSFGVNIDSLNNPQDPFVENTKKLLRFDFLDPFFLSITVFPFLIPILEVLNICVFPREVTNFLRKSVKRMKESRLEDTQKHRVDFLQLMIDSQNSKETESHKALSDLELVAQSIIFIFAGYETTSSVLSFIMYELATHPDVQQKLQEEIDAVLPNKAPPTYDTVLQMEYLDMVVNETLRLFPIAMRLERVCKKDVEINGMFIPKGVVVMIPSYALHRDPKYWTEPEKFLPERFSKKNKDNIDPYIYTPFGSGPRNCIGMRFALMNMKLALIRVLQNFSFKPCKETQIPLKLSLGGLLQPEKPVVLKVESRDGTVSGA
T4 sequence (P05177 whole entry): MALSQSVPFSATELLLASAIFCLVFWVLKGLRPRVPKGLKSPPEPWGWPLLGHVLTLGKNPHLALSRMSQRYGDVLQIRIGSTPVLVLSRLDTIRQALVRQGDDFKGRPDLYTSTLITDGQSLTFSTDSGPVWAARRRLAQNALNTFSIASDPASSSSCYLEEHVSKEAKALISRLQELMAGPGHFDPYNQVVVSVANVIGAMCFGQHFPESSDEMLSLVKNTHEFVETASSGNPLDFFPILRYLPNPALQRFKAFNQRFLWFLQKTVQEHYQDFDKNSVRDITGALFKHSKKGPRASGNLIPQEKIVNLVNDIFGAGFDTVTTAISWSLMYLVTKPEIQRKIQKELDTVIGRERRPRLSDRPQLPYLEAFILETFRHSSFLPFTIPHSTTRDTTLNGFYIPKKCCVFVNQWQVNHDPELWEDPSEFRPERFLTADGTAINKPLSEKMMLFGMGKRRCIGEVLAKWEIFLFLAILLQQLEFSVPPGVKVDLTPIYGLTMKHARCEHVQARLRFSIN
T3 sequence (P11712 whole entry): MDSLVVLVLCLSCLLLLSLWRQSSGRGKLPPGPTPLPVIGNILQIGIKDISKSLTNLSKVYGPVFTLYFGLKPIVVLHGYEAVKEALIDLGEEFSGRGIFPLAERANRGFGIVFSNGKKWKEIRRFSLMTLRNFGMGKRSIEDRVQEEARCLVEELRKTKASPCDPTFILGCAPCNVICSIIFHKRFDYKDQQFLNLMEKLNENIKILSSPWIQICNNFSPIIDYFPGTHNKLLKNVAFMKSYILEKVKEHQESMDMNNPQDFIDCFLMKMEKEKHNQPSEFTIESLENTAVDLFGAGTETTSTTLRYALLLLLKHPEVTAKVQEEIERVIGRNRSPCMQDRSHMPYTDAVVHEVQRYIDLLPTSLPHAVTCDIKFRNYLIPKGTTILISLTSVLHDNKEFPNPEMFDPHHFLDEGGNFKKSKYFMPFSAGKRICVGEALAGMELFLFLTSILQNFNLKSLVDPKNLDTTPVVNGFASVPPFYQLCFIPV

By IC50 is commonly meant the point on the concentration scale where inhibition reaches its midpoint. A word on the Ki: it is a measure of affinity in units of concentration, obtained from inhibition or displacement. As for `CC(C)Cc1nc(-c2ccc(Cn3ccnc3C(C)(C)C)cc2)c(S(=O)(=O)NC(=O)NCc2cccs2)s1` [Example 1, 4-(4-((2-(tert-Butyl)-1H-imidazol-1-yl)methyl)phenyl)-2-isobutyl-N-((thiophen-2-ylmethyl)carbamoyl)thiazole-5-sulfonamide], the IC50 in data set [1] amounted to 13 nM; in [2] it was 1350 nM. Also, the inhibitory constant (Ki) in data set [1] came out at 6.5 nM.

As for `CC(C)Cc1ccc(S(=O)(=O)NC(=O)NCc2ccccn2)c(-c2ccc(Cn3ccnc3C(C)(C)C)cc2)c1` [Example 2, 4′-((2-(tert-Butyl)-1H-imidazol-1-yl)methyl)-5-isobutyl-N-((pyridin-2-ylmethyl)carbamoyl)-[1,1′-biphenyl]-2-sulfonamide], in [1], the IC50 was 0.43 nM and the Ki was determined as 0.22 nM. For the same compound, in data set [2], the IC50 came to 4600 nM.

On to `COC(=O)NS(=O)(=O)c1ccc(CC(C)C)cc1-c1ccc(Cn2ccnc2C)cc1` [Example 18, Methyl (5-isobutyl-4′-((2-methyl-1H-imidazol-1-yl)methyl)-[1,1′-biphenyl]-2-yl)sulfonylcarbamate], for which, in data set [1], the IC50 worked out at 1.78 nM and the inhibition constant (Ki) is 0.93 nM. Besides, in data set [3] (setting [15]), the half-life at 1 μM is > 60 min. Moreover, the half-life at 1 μM in [3] (setting [16]) was > 60 min.

Consider `CCCCOC(=O)NS(=O)(=O)c1ccc(CC(C)C)cc1-c1ccc(Cn2ccnc2C(C)(C)C)c(F)c1` [Example 4, Butyl ((4′-((2-(tert-butyl)-1H-imidazol-1-yl)methyl)-3′-fluoro-5-isobutyl-[1,1′-biphenyl]-2-yl)sulfonyl)carbamate], for which the inhibition at 10 µM was 92.8% in data set [4]; -35.8% in [5]; 62.4% in [6]; 18.1% in data set [7]; 60.4% in data set [8]; 26.5% in data set [9]. Also, the inhibition at 10 µM amounted to 23.5% in data set [10] and 87.5% in data set [11]. Further, the half-inhibitory concentration (IC50) came to 0.49 nM in data set [1] and 1200 nM in [2]. Further, in [1], the Ki was found to be 0.25 nM. In addition, the figures for the half-life at 1 μM in data set [3] (setting [15]) and in data set [3] (setting [16]) were 2 min and 4 min, respectively.

Take `CCCCOC(=O)NS(=O)(=O)c1sc(CC(C)C)cc1-c1ccc(Cn2ccnc2)cc1` [Example C21, N-butyloxycarbonyl-3-(4-imidazol-1-ylmethylphenyl)-5-isobutylthiophene-2-sulfon-amide]: in data set [12], the “inhibition of CYP 3A4” value is recorded as “potent inhibitor”. For the same compound, the “inhibition of CYP 2C9” value in data set [13] is listed as “potent inhibitor”. In addition, in data set [14], the metabolic hydrolysis entry was “rapidly hydrolysed to an inactive sulfonamide metabolite”.

For the compound `CC(C)Cc1ccc(S(=O)(=O)NC(=O)OCCO)c(-c2ccc(Cn3ccnc3C(C)(C)C)c(F)c2)c1` [Example 17, 2-Hydroxyethyl (4′-((2-(tert-butyl)-1H-imidazol-1-yl)methyl)-3′-fluoro-5-isobutyl-[1,1′-biphenyl]-2-yl)sulfonylcarbamate], the half-inhibitory concentration (IC50) in [1] was determined as 0.274 nM. Further, in data set [1], the Ki worked out at 0.14 nM. For the same compound, the half-life at 1 μM in data set [3] (setting [15]) and in data set [3] (setting [16]) was > 60 min each time.

As to `CCOC(=O)NS(=O)(=O)c1ccc(CC(C)C)cc1-c1ccc(Cn2ccnc2C(C)(C)C)c(F)c1` [Example 6, Ethyl ((4′-((2-(tert-butyl)-1H-imidazol-1-yl)methyl)-3′-fluoro-5-isobutyl-[1,1′-biphenyl]-2-yl)sulfonyl)carbamate], the inhibition at 10 µM in data set [4] worked out at 72.2%; in data set [5] it was 8.6%; in data set [6], 26.4%; in [7], 19.9%; in [8] it was 49.3%; in data set [9], 33.1%. In addition, the inhibition at 10 µM in data set [10] is 31%; in [11], 53%. The half-life at 1 μM in data set [3] (setting [15]) came to 12 min; in [3] (setting [16]), 14 min.

For the compound `CCOC(=O)NS(=O)(=O)c1ccc(CC(C)C)cc1-c1ccc(Cn2ccnc2CC)c(F)c1` [Example 14, Ethyl ((4′-((2-ethyl-1H-imidazol-1-yl)methyl)-3′-fluoro-5-isobutyl-[1,1′-biphenyl]-2-yl)sulfonyl)carbamate], the inhibition at 10 µM in data set [4] is 68%; in [5], 9.4%; in data set [6], 20.6%; in [7], -4.2%; in data set [8], 40.9%; in [9], 0.1%. The inhibition at 10 µM was 21.9% in [10] and 57.6% in data set [11]. Further, the half-life at 1 μM is 43 min in data set [3] (setting [15]) and 46 min in data set [3] (setting [16]).
